Measured values reported in patent US6180651A, “Diarylmethylidenefuran derivatives, processes for their preparation and their uses in therapeutics” (Bristol-Myers Squibb, priority 1996, dated 2001).

Key:
carrageenin oedema = assay: anti-inflammatory activity, carrageenin oedema test; assay type: in vivo; conditions: rat, oral; dose which induces 50% decrease in the volume of the oedema; read-out: Anti-inflammatory activity ID50
Protocol: (§1) The anti-inflarnmatory activity of the compounds of the Examples was evaluated by the carrageenin oedema method and the analgesic activity was evaluated by the kaolin arthritis method.
Anti-inflammatory Activity:
The anti-inflammatory activity is evaluated in the rat by the carrageenin oedema test. The product is administered orally at a rate of 2.5 ml/100 g (n=6 animals per dose) 2 h 30 min after oral hyperhydration (2.5 m/100 g); one hour after administration of the product, the oedema is induced by the plantar subcutaneous injection of 2% aqueous carrageenin solution. The results are expressed as the ID50, the dose in mg/kg which induces 50% decrease in the volume of the oedema, calculated by linear regression using the maximum oedema volume obtained for each product tested.

kaolin arthritis = assay: analgesic activity, kaolin arthritis test; assay type: in vivo; conditions: rat, oral; dose which induces 50% decrease of the maximum quotation in the control batch; read-out: Analgesic activity DE50
Protocol: as §1
The analgesic activity is evaluated in the rat by the kaolin arthritis test. Thirty minutes after the intra-articular administration of 10% aqueous kaolin suspension, the product is administered orally at a rate of 1 ml/100 g (n=10 animals per dose). The results are expressed as DE50, the dose in mg/kg which induces 50% decrease of the maximum quotation in the control batch, calculated by linear regression.

COX-2 = target: T1, COX-2 (Ovis aries, UniProt P79208); assay: inhibition of COX-2 enzymatic activity (PGE2 by EIA); assay type: biochemical, ewe; conditions: for IC50: purified enzyme from ewe placenta, arachidonic acid 4 μM, n=1 to 4 determinations; for Selectivity COX-1/COX-2 ratio: ratio of IC50 COX-1 / IC50 COX-2
T1 construct: purified enzyme from ewe placenta; from tissue; host or cells: ewe placenta (purified enzyme)
T1 sequence (P79208 17-603): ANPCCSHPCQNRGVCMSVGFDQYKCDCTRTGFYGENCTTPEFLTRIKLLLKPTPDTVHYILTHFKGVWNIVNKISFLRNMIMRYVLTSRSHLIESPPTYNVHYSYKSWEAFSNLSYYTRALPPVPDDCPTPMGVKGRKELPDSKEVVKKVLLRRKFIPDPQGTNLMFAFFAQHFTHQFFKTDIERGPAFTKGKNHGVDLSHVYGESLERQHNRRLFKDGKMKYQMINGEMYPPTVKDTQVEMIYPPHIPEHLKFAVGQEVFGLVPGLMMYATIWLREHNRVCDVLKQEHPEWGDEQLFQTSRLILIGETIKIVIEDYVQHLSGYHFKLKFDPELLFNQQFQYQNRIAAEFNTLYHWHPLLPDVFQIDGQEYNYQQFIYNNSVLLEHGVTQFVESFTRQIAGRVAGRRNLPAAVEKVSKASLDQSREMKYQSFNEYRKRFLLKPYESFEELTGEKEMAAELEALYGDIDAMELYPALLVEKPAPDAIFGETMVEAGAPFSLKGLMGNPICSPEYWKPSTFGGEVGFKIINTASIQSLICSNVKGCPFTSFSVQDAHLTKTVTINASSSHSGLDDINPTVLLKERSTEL
Protocol: (§2) Inhibition of the COX-1 and COX-2 Enzymatic Activities The test molecule is preincubated for 10 minutes at 25° C. with 2 U of COX-1 (purified enzyme from ram seminal vesicles) or 1 U of COX-2 (purified enzyme from ewe placenta). Arachidonic acid (6 μM for COX-1, 4 μM for COX-2) is added to the reaction medium and incubation is carried out for 5 minutes at 25° C. When incubation has ended, the enzymatic reaction is stopped by the addition of 1 N HCl and the PGE2 produced is determined by EIA. The results are expressed as IC50, the concentration in nM which corresponds to 50% inhibition of the maximal enzymatic activity on the COX-1 and COX-2 (n=1 to 4 determinations).

COX-1 = target: T2, COX-1 (Ovis aries, UniProt P05979); assay: inhibition of COX-1 enzymatic activity (PGE2 by EIA); assay type: biochemical; conditions: purified enzyme from ram seminal vesicles; arachidonic acid 6 μM; n=1 to 4 determinations
T2 construct: purified enzyme from ram seminal vesicles; from tissue; host or cells: ram seminal vesicles (purified enzyme)
T2 sequence (P05979 25-600): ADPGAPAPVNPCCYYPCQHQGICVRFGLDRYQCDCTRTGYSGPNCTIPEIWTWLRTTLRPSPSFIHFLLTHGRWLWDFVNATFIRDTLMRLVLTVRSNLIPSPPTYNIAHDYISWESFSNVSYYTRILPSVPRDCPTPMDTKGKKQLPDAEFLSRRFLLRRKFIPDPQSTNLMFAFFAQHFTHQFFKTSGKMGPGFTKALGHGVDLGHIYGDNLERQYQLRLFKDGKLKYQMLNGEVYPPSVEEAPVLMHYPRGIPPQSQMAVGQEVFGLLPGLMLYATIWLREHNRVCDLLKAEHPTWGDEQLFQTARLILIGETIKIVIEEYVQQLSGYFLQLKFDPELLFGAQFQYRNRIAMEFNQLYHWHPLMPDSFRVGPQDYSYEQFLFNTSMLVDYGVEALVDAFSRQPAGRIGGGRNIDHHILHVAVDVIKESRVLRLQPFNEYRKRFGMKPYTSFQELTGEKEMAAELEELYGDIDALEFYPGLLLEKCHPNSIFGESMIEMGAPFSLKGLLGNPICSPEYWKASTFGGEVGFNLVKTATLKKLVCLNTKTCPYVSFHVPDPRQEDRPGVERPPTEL
Protocol: as §2

[1] = gastric tolerance, ulceration index; set-up: species or system Charles River rats of the CD strain; conditions: rat, in vivo, po
Protocol: The gastric tolerance is studied on Charles River rats of the CD strain weighing between 110 and 150 g. The animals are placed on a water diet 24 h prior to oral administration of the product or the vehicle only at a rate of 1 ml/100 g (n=6 animals per dose). Six hours after administration,the animals are sacrificed and the stomachs are removed and opened along the large curvature. The number of haemorrhagic puncta and sulci per stomach, identified macroscopically, makes it possible to establish an ulceration index (0: no lesion, 1: 1 to 2 lesions, 2: 3 to 4 lesions, 3: 5 to 8 lesions, 4: 9 to 16 lesions, 5: more than 17 lesions) and to estimate the 50% ulcerigenic dose (UD50 =dose inducing 4 to 5 lesions, expressed in mg/kg).

apc/min mice = assay: chemoprevention assay in apc/min mice (model of human familial adenomatous polyposis); assay type: in vivo; conditions: 1.8 mg/kg/day in the feed
Protocol: Chemoprevention Assays in Mice:
The test molecule is given in the feed to apc/min mice, a mouse model of human familial adenomatous polyposis, at 1.8 mg/kg/day for 240 days. The viability and the average tumor burden in animals receiving the test compound is compared to that in control animals.

| SMILES | ED50 (carrageenin oedema) | ED50 (kaolin arthritis) | IC50 (COX-2) | Selectivity COX-1/COX-2 ratio (COX-2) | IC50 (COX-1) | TD50 at 6 h [1] | mice still alive (apc/min mice; 240 days, control 8/29) | average tumor burden (apc/min mice; 240 days, control 16.3 tumors) | viability compared to control (apc/min mice; after 240 days) |
| --- | --- | --- | --- | --- | --- | --- | --- | --- | --- |
| CS(=O)(=O)c1ccc(/C(=C2\CCOC2=O)c2ccc(F)cc2)cc1 [4 (E isomer), (E)-3-[1-(4-fluorophenyl)-1-(4-methanesulphonylphenyl)methylidene]dihydrofuran-2-one] | 1.8 mg/kg | 7.6 mg/kg | 674 ± 46 nM | > 445 | > 300000 nM | > 1000 mg/kg |  |  |  |
| CS(=O)(=O)c1ccc(/C(=C2\CCOC2=O)c2ccc(Cl)cc2)cc1 [8 (Z isomer), (Z)-3-[1-(4-chlorophenyl)-1-(4-methanesulphonylphenyl)methylidene]dihydrofuran-2-one] | 3.7 mg/kg | 2.1 mg/kg | 182 ± 25 nM | 944 | 172000 ± 22200 nM | > 1000 mg/kg | 17/29 | 11.9 tumors per mouse | outliving their control counterparts |
| NS(=O)(=O)c1ccc(/C(=C2\CCOC2=O)c2ccc(Cl)cc2)cc1 [125 (Z isomer), (Z)-4-[(4-chlorophenyl)-(2-oxo-dihydro-furan-3-ylidene)-methyl]benzenesulphonamide] | 1.8 mg/kg | 8.5 mg/kg | 60 nM | 42 | 2520 ± 1310 nM | > 1000 mg/kg |  |  |  |
| Cc1cc(/C(=C2/CCOC2=O)c2ccc(S(N)(=O)=O)cc2)ccc1F [135 (Z isomer), (Z)-4-[(4-fluoro-3-methylphenyl)-(2-oxo-dihydrofuran-3-ylidene)methyl]benzenesulphonamide] | 3.3 mg/kg | 6.1 mg/kg | 245 ± 76 nM | 80 | 19700 nM |  |  |  |  |
| NS(=O)(=O)c1ccc(/C(=C2\CCOC2=O)c2ccc(F)c(Cl)c2)cc1 [143 (Z isomer), (Z)-4-[(3-chloro-4-fluorophenyl)-(2-oxo-dihydro-furan-3-ylidene)methyl]benzenesulphonamide] | 0.7 mg/kg | 6.4 mg/kg | 73 nM | 174 | 12700 nM |  |  |  |  |
